Measured values from US12527774B2, “Estrogen-related receptor alpha modulators” (LEAD PHARMA HOLDING B.V., priority 2019, dated 2026).

Target: ERRα ligand binding domain (ERRα-LBD) (Homo sapiens (Human), UniProt P11474)
Assay: ERRα AlphaScreen Assay
Format: biochemical
Settings: disruption of binding of ERRα-LBD protein to biotin-PGC1α-3 co-activator peptide; for IC50: read-out: mean pIC50 (converted)
Summary of the method: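 His-SUMO-tagged ERRα-LBD from E. coli (0.81 nM) preincubated 1 h at room temperature with compound, streptavidin donor and Ni-chelate acceptor beads (10 μg/mL each), then 2 h with 15 nM biotin-PGC1α-3 peptide (aa 202–220). Buffer: 50 mM Tris-HCl pH 7.5, 100 mM NaCl, 5 mM TCEP, 1% DMSO. Four-parameter IC50; mean pIC50 of replicate values.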

Sequence of ERRα ligand binding domain (ERRα-LBD) (P11474 193-421): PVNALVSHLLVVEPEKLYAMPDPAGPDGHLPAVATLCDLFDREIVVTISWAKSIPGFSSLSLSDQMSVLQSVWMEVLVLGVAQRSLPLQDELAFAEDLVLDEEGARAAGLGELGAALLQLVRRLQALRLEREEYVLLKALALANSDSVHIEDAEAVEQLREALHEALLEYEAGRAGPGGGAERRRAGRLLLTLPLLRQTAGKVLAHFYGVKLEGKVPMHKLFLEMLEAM

SMILES: COc1cc(C2CC(=O)Nc3n[nH]cc32)ccc1COc1cc(C)cc(C(F)(F)F)c1 (stereo not drawn) [Example 114, 4-(3-methoxy-4-{[3-methyl-5-(trifluoromethyl)phenoxy]methyl}phenyl)-2H,4H,5H,6H,7H-pyrazolo[3,4-b]pyridin-6-one]
- IC50: 100 to 1000 nM

SMILES: COc1cc(C2CC(=O)Nc3n[nH]cc32)cc(F)c1OCc1ccccc1C(F)(F)F (stereo not drawn) [Example 78, 4-(3-fluoro-5-methoxy-4-{[2-(trifluoromethyl)phenyl]methoxy}phenyl)-2H,4H,5H,6H, 7H-pyrazolo[3,4-b]pyridin-6-one]
- IC50: 100 to 1000 nM

SMILES: COc1cc(C2CC(=O)Nc3n[nH]cc32)ccc1OCc1ccccc1I (stereo not drawn) [Example 23, 4-{4-[(2-iodophenyl)methoxy]-3-methoxyphenyl}-2H,4H,5H,6H, 7H-pyrazolo[3,4-b]pyridin-6-one]
- mean pIC50: ≥ 8

SMILES: COc1cc(C2CC(=O)Nc3n[nH]cc32)ccc1OCc1cccc2cccnc12 (stereo not drawn) [Example 47, 4-{3-methoxy-4-[(quinolin-8-yl)methoxy]phenyl}-2H,4H,5H,6H, 7H-pyrazolo[3,4-b]pyridin-6-one]
- IC50: 100 to 1000 nM

SMILES: COc1ccccc1COc1ccc(C2CC(=O)Nc3n[nH]cc32)cc1OC (stereo not drawn) [Example 30, 4-{3-methoxy-4-[(2-methoxyphenyl)methoxy]phenyl}-2H,4H,5H,6H,7H-pyrazolo[3,4-b]pyridin-6-one]
- IC50: 100 to 1000 nM

SMILES: COc1cc(C2CC(=O)Nc3c[nH]nc32)ccc1OCc1ccc(CCO)cc1C(F)(F)F (stereo not drawn) [Example 156, 7-(4-{[4-(2-hydroxyethyl)-2-(trifluoromethyl)phenyl]methoxy}-3-methoxyphenyl)-2H,4H,5H,6H, 7H-pyrazolo[4,3-b]pyridin-5-one]
- IC50: 10 to 100 nM

SMILES: COc1cc(C2CC(=O)Nc3n[nH]cc32)c(F)cc1OCc1cccc(F)c1C(F)(F)F (stereo not drawn) [Example 77, 4-(2-fluoro-4-{[3-fluoro-2-(trifluoromethyl)phenyl]methoxy}-5-methoxyphenyl)-2H,4H,5H,6H,7H-pyrazolo[3,4-b]pyridin-6-one]
- IC50: 100 to 1000 nM

SMILES: COc1cc(C2CC(=O)Nc3n[nH]cc32)ccc1OCc1ccncc1C(F)(F)F (stereo not drawn) [Example 50, 4-(3-methoxy-4-{[3-(trifluoromethyl)pyridin-4-yl]methoxy}phenyl)-2H,4H,5H,6H,7H-pyrazolo[3,4-b]pyridin-6-one]
- IC50: 100 to 1000 nM

SMILES: CCCCOC(=O)c1ccccc1COc1ccc(C2CC(=O)Nc3n[nH]cc32)cc1OC (stereo not drawn) [Example 126, butyl 2-(2-methoxy-4-{6-oxo-2H,4H,5H,6H,7H-pyrazolo[3,4-b]pyridin-4-yl}phenoxymethyl)benzoate]
- IC50: 100 to 1000 nM

SMILES: COc1cc(-c2cc(=O)[nH]c3n[nH]cc23)ccc1OCc1ccncc1C(F)(F)F [Example 172, 4-(3-methoxy-4-{[3-(trifluoromethyl)pyridin-4-yl]methoxy}phenyl)-2H,6H, 7H-pyrazolo[3,4-b]pyridin-6-one]
- IC50: 100 to 1000 nM

SMILES: COC(=O)Cc1ccc(COc2ccc(C3CC(=O)Nc4n[nH]cc43)cc2OC)c(C(F)(F)F)c1 (stereo not drawn) [Example 148, methyl 2-[4-(2-methoxy-4-{6-oxo-2H,4H,5H,6H,7H-pyrazolo[3,4-b]pyridin-4-yl}phenoxymethyl)-3-(trifluoromethyl)phenyl]acetate]
- IC50: 100 to 1000 nM

SMILES: COc1cc(-c2cc(=O)[nH]c3n[nH]cc23)ccc1OCc1ccccc1OC(F)F [Example 180, 4-(4-{[2-(difluoromethoxy)phenyl]methoxy}-3-methoxyphenyl)-2H,6H, 7H-pyrazolo[3,4-b]pyridin-6-one]
- mean pIC50: ≥ 8

SMILES: COc1cc(-c2cc(=O)[nH]c3[nH]ccc23)ccc1OCc1ccccc1C(F)(F)F [Example 168, 4-(3-methoxy-4-{[2-(trifluoromethyl)phenyl]methoxy}phenyl)-1H,6H, 7H-pyrrolo[2,3-b]pyridin-6-one]
- IC50: 100 to 1000 nM

SMILES: CCc1cc(C2CC(=O)Nc3n[nH]cc32)ccc1OCc1ccccc1C(F)(F)F (stereo not drawn) [Example 71, 4-(3-ethyl-4-{[2-(trifluoromethyl)phenyl]methoxy}phenyl)-2H,4H,5H,6H,7H-pyrazolo[3,4-b]pyridin-6-one]
- IC50: 10 to 100 nM

SMILES: COc1cc(-c2cc(=O)[nH]c3n[nH]cc23)ccc1OCc1ccc(N)cc1C(F)(F)F [Example 173, 4-(4-{[4-amino-2-(trifluoromethyl)phenyl]methoxy}-3-methoxyphenyl)-2H,6H,7H-pyrazolo[3,4-b]pyridin-6-one]
- mean pIC50: ≥ 8

SMILES: Nc1cc(C2CC(=O)Nc3n[nH]cc32)ccc1OCc1ccccc1C(F)(F)F (stereo not drawn) [Example 161, 4-(3-amino-4-{[2-(trifluoromethyl)phenyl]methoxy}phenyl)-2H,4H,5H,6H, 7H-pyrazolo[3,4-b]pyridin-6-one]
- IC50: 100 to 1000 nM

SMILES: COc1cc(C2CC(=O)Nc3n[nH]cc32)c(F)cc1OCc1ccccc1C(F)(F)F (stereo not drawn) [Example 75, 4-(2-fluoro-5-methoxy-4-{[2-(trifluoromethyl)phenyl]methoxy}phenyl)-2H,4H,5H, 6H, 7H-pyrazolo[3,4-b]pyridin-6-one]
- IC50: 10 to 100 nM

SMILES: COc1cc(-c2cc(=O)[nH]c3n[nH]cc23)ccc1OCc1ccccc1 [Example 183, 4-[4-(benzyloxy)-3-methoxyphenyl]-2H,6H, 7H-pyrazolo[3,4-b]pyridin-6-one]
- IC50: 100 to 1000 nM

SMILES: COc1cc(C2CC(=O)Nc3n[nH]cc32)ccc1OCc1ccc(C#N)cc1C(F)(F)F (stereo not drawn) [Example 105, 4-[(2-methoxy-4-{6-oxo-2H,4H,55H, 6H, 7H-pyrazolo[3,4-b]pyridin-4-yl}phenyl)methoxy]-3-(trifluoromethyl)benzonitrile]
- IC50: 10 to 100 nM

SMILES: COc1cc(-c2cc(=O)[nH]c3n[nH]cc23)ccc1OCc1ccc(C#N)cc1C(F)(F)F [Example 181, 4-[(2-methoxy-4-{6-oxo-2H,6H, 7H-pyrazolo[3,4-b]pyridin-4-yl}phenoxy)methyl]-3-(trifluoromethyl)benzonitrile]
- IC50: 10 to 100 nM

SMILES: CCCOC(=O)c1ccccc1COc1ccc(C2CC(=O)Nc3n[nH]cc32)cc1OC (stereo not drawn) [Example 125, propyl 2-(2-methoxy-4-{6-oxo-2H,4H,5H,6H,7H-pyrazolo[3,4-b]pyridin-4-yl}phenoxymethyl)benzoate]
- IC50: 100 to 1000 nM

SMILES: COc1cc(C2CC(=O)Nc3n[nH]cc32)ccc1COc1ccc(C)cc1C (single isomer, unassigned; (-)) [Example 220, (−)-4-{4-[(2,4-dimethylphenoxy)methyl]-3-methoxyphenyl}-2H,4H,5H,6H,7H-pyrazolo[3,4-b]pyridin-6-one]
- mean pIC50: ≥ 8

SMILES: O=C1CC(c2ccc(OCc3ccccc3Cl)cc2)c2c[nH]nc2N1 (stereo not drawn) [Example 60, 4-{4-[(2-chlorophenyl)methoxy]phenyl}-2H,4H,5H,6H,7H-pyrazolo[3,4-b]pyridin-6-one]
- IC50: 100 to 1000 nM

SMILES: COc1cc(C2CC(=O)Nc3n[nH]cc32)ccc1OCc1ccc(C(C)=O)cc1C(F)(F)F (stereo not drawn) [Example 41, 4-(4-{[4-acetyl-2-(trifluoromethyl)phenyl]methoxy}-3-methoxyphenyl)-2H,4H,5H,6H, 7H-pyrazolo[3,4-b]pyridin-6-one]
- mean pIC50: ≥ 8

SMILES: O=C1CC(c2ccc(OCc3ccccc3C(F)(F)F)c(Cl)c2)c2c[nH]nc2N1 (stereo not drawn) [Example 72, 4-(3-chloro-4-{[2-(trifluoromethyl)phenyl]methoxy}phenyl)-2H,4H,5H,6H, 7H-pyrazolo[3,4-b]pyridin-6-one]
- IC50: 10 to 100 nM

SMILES: COc1cc(C2CC(=O)Nc3n[nH]cc32)ccc1OCc1ccc(C(C)(C)CO)cc1C(F)(F)F (stereo not drawn) [Example 152, 4-(4-{[4-(1-hydroxy-2-methylpropan-2-yl)-2-(trifluoromethyl)phenyl]methoxy}-3-methoxyphenyl)-2H,4H,5H,6H, 7H-pyrazolo[3,4-b]pyridin-6-one]
- IC50: 10 to 100 nM

SMILES: CN(C)c1cc(OCc2ccccc2C(F)(F)F)ccc1C1CC(=O)Nc2n[nH]cc21 (stereo not drawn) [Example 162, 4-[2-(dimethylamino)-4-{[2-(trifluoromethyl)phenyl]methoxy}phenyl]-2H,4H,5H,6H, 7H-pyrazolo[3,4-b]pyridin-6-one]
- IC50: 100 to 1000 nM

SMILES: O=C1CC(c2ccc(COc3ccc(F)cc3C(F)(F)F)c(OC(F)(F)F)c2)c2c[nH]nc2N1 (stereo not drawn) [Example 110, 4-(4-{[4-fluoro-2-(trifluoromethyl)phenoxy]methyl}-3-(trifluoromethoxy)phenyl)-2H,4H,5H,6H, 7H-pyrazolo[3,4-b]pyridin-6-one]
- IC50: 100 to 1000 nM

SMILES: COc1cc(C2CC(=O)Nc3n[nH]cc32)ccc1OCc1cccc(OCCO)c1C(F)(F)F (stereo not drawn) [Example 160, 4-(4-{[3-(2-hydroxyethoxy)-2-(trifluoromethyl)phenyl]methoxy}-3-methoxyphenyl)-2H,4H,5H,6H,7H-pyrazolo[3,4-b]pyridin-6-one]
- IC50: 100 to 1000 nM

SMILES: COc1cc(C2CC(=O)Nc3n[nH]cc32)ccc1OCc1cccc2ccsc12 (stereo not drawn) [Example 45, 4-{4-[(1-benzothiophen-7-yl)methoxy]-3-methoxyphenyl}-2H,4H,5H,6H, 7H-pyrazolo[3,4-b]pyridin-6-one]
- IC50: 10 to 100 nM

SMILES: COc1cc(C2CC(=O)Nc3nn(C)cc32)ccc1OCc1ccccc1C(F)(F)F (stereo not drawn) [Example 80, 4-(3-methoxy-4-{[2-(trifluoromethyl)phenyl]methoxy}phenyl)-2-methyl-2H,4H,5H,6H,7H-pyrazolo[3,4-b]pyridin-6-one]
- IC50: 100 to 1000 nM

SMILES: COC(=O)c1cc(C2CC(=O)Nc3n[nH]cc32)ccc1OCc1ccccc1C(F)(F)F (stereo not drawn) [Example 65, methyl 5-{6-oxo-2H,4H,5H,6H,7H-pyrazolo[3,4-b]pyridin-4-yl}-2-{[2-(trifluoromethyl)phenyl]methoxy}benzoate]
- IC50: 10 to 100 nM

SMILES: COc1cc(C2CC(=O)Nc3n[nH]cc32)ccc1COc1ccc(C(F)F)cc1C(F)(F)F (single isomer, unassigned; (+)) [Example 195, (+)-4-(4-{[4-(difluoromethyl)-2-(trifluoromethyl)phenoxy]methyl}-3-methoxyphenyl)-2H,4H,5H,6H,7H-pyrazolo[3,4-b]pyridin-6-one]
- IC50: 10 to 100 nM
